In ChEMBL document CHEMBL5154929, “Optimization of the Natural Product Calothrixin A to Discover Novel Dual Topoisomerase I and II Inhibitors with Improved Anticancer Activity” (J Med Chem, 2022):
Activity calls are given as the source filed them. The calls are words filed in the database; no cut-off is given here.

Tests used:
A-375 [1] = assay: In vivo induction of apoptosis in human A-375 cells xenografted in BALB/c nude mouse treated after 7 days of tumor implantation on right flank subcutaneously at 10 to 20 mg/kg, iv administered once per 2 days for 14 days by measuring TUNEL positive cells under a light microscope; assay type: functional, organism-based; details: dose 10-20 mg/kg, time 14.0 day
MDA-MB-231 = assay: Cytotoxicity against human MDA-MB-231 cells expressing high level of topoisomerase I/II measured after 72 hrs by MTT assay; assay type: functional, cell-based; details: MDA-MB-231, 72 h
A-375 [2] = assay: Induction of cell cycle arrest in human A-375 cells assessed as accumulation of cells at S phase at 80 nM incubated for 24 hrs by PI based flow cytometric analysis (RVB = 26.73%); assay type: functional
A-375 [3] = assay: Inhibition of colony formation in human A-375 cells at 20 to 40 nM incubated for 48 hrs by crystal violet staining method; assay type: functional, cell-based; details: dose 20-40 nM
[4] = Aqueous solubility of the compound in saline equilibrating for 24 hrs by HPLC analysis; assay type: physicochemical
[5] = molecular target: T1, DNA topoisomerase 1 (Homo sapiens) (UniProt P11387); assay: Poison activity at human topoisomerase I assessed as stabilization of enzyme-DNA cleavage complex by measuring nicked DNA formation at 100 uM after 60 mins by agarose gel electrophoresis method
T1 sequence (whole entry): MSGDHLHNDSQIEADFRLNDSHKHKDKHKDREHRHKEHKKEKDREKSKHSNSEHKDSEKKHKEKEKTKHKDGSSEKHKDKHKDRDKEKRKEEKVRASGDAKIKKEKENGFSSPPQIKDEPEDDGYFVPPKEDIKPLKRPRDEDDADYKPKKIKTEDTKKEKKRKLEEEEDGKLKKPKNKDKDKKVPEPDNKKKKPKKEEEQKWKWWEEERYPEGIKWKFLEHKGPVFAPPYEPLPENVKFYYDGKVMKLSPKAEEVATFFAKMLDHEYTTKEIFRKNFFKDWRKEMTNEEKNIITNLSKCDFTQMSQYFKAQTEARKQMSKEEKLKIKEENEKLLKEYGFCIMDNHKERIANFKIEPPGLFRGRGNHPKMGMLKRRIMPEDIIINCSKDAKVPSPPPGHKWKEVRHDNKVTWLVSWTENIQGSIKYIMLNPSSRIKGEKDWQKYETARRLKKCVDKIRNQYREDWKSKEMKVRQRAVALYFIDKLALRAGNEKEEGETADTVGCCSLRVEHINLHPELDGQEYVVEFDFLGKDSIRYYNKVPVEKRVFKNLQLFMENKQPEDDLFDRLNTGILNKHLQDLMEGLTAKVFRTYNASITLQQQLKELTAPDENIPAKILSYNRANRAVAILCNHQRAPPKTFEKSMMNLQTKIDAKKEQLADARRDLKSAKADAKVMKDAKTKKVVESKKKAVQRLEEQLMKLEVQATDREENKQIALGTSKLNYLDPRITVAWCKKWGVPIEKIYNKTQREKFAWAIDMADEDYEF

A-375 [6] = assay: Induction of cell cycle arrest in human A-375 cells assessed as accumulation of cells at G2 phase at 40 nM incubated for 24 hrs by PI based flow cytometric analysis (RVB = 20.34%); assay type: functional
Calf thymus DNA [7] = assay: Binding affinity to calf thymus DNA assessed as intercalation by measuring hypochromic shift at 389 nm by […]; assay type: nucleic-acid assay; details: Bos taurus
[8] = Cytotoxicity against human HEK293T cells measured after 72 hrs by MTT assay; assay type: toxicity, cell-based, HEK-293T
MCF7 [9] = assay: Cytotoxicity against human MCF7 cells expressing high level of topoisomerase I/II measured after 72 hrs by MTT assay; assay type: functional, cell-based; details: MCF7, 72 h
A-375 [10] = assay: In vivo antitumor activity against human A-375 cells xenografted in BALB/c nude mouse assessed as shrinkage of tumor tissue treated after 7 days of tumor implantation on right flank subcutaneously at 10 to 20 mg/kg, iv administered once per 2 days for 14 days measured once every two days; assay type: functional, organism-based; details: dose 10-20 mg/kg, time 14.0 day
A-375 [11] = assay: Induction of cell cycle arrest in human A-375 cells assessed as accumulation of cells at G1 phase at 80 nM incubated for 24 hrs by PI based flow cytometric analysis (RVB = 52.94%); assay type: functional
A-375 [12] = assay: Induction of apoptosis in human A-375 cells assessed as increase in expression level of Bax measured after 24 hrs by Western blotting analysis; assay type: functional, cell-based; details: dose 40-120 nM, DDE = dose-dependent effect
[13] = AUC in Kunming mouse plasma at 10 mg/kg, iv administered as single dose measured after 5 to 360 mins by HPLC analysis; assay type: ADME, organism-based; set-up: time upper 360 min, time lower 5 min, dose 10 mg/kg, route iv
A-375 [14] = assay: Induction of apoptosis in human A-375 cells at 40 nM measured after 24 hrs by Annexin V-FITC and DAPI staining based flow cytometric analysis; assay type: functional
A549 = assay: Cytotoxicity against human A549 cells expressing high level of topoisomerase I/II measured after 72 hrs by MTT assay; assay type: functional, cell-based; details: A549, 72 h
[15] = In vivo acute toxicity in Balb/C mouse assessed as pathological damage in lung at 50 mg/kg, iv administered once per 2 days for 7 days measured 24 hrs after last dose by H and E staining method; assay type: organism-based; details: 168 h, time 7 day
A-375 [16] = assay: Induction of apoptosis in human A-375 cells at 80 nM measured after 24 hrs by Annexin V-FITC and DAPI staining based flow cytometric analysis; assay type: functional
HCT-116 = assay: Antiproliferative activity against doxorubicin sensitive human HCT-116 cells measured after 72 hrs by MTT assay; assay type: functional, cell-based; details: HCT-116, 72 h
Calf thymus DNA [17] = assay: Binding affinity to calf thymus DNA assessed as intercalation by measuring hypochromic shift at 432 nm by […]; assay type: nucleic-acid assay; details: Bos taurus
A-375 [18] = assay: Induction of apoptosis in human A-375 cells at 80 nM measured after 8 hrs by Annexin V-FITC and DAPI staining based flow cytometric analysis; assay type: functional
A-375 [19] = assay: Induction of cell cycle arrest in human A-375 cells assessed as accumulation of cells at G1 phase at 40 nM incubated for 24 hrs by PI based flow cytometric analysis (RVB = 52.94%); assay type: functional
A-375 [20] = assay: Induction of cell cycle arrest in human A-375 cells assessed as accumulation of cells at S phase at 40 nM incubated for 24 hrs by PI based flow cytometric analysis (RVB = 26.73%); assay type: functional
A-375 [21] = assay: Antimigratory activity in human A-375 cells assessed as reduction in cell migration incubated for 24 hrs by wound healing assay; assay type: functional, cell-based; details: dose 10-40 nM, DDE = dose-dependent effect
MCF7 [22] = assay: Inhibition of colony formation in human MCF7 cells at 20 to 40 nM incubated for 48 hrs by crystal violet staining method; assay type: functional, cell-based; details: dose 20-40 nM
[23] = Cytotoxicity against human L02 cells measured after 72 hrs by MTT assay; assay type: toxicity, cell-based
[24] = In vivo acute toxicity in Balb/C mouse assessed as effect on body weight at 50 mg/kg, iv administered once per 2 days for 7 days measured every other day; assay type: organism-based; details: 168 h, time 7 day
A-375 [25] = assay: Induction of cell cycle arrest in human A-375 cells assessed as accumulation of cells at G2 phase at 20 nM incubated for 24 hrs by PI based flow cytometric analysis (RVB = 20.34%); assay type: functional
[26] = Cmax in Kunming mouse plasma at 10 mg/kg, iv administered as single dose measured after 5 to 360 mins by HPLC analysis; assay type: ADME, organism-based; set-up: dose 10 mg/kg, time upper 360 min, time lower 5 min, route iv

O=C1c2c[n+]([O-])c3ccccc3c2C(=O)c2c1c1ccccc1n2Cc1cn([C@@H]2C[C@H](O)[C@@H](CO)O2)nn1
Activity (A-375 [1]): Active
IC50 (MDA-MB-231): 130 nM
Activity (A-375 [2]): 58.13%
inhibition (A-375 [3]): Active
solubility at 24 h [4]: > 5000 µg/mL
Activity [5]: Active
Activity (A-375 [6]): 27.87%
Activity (Calf thymus DNA [7]): 29%
IC50 at 72 h [8]: 820 nM
IC50 (MCF7 [9]): 110 nM
Activity (A-375 [10]): Active
Activity (A-375 [11]): 34.99%
Activity (A-375 [12]): Dde
AUC [13]: 48000 ng·h/mL
Activity (A-375 [14]): 23.26%
IC50 (A549): 120 nM
Activity [15]: Non-Toxic
Activity (A-375 [16]): 36.21%
IC50 (HCT-116): 50 nM
Activity (Calf thymus DNA [17]): 32%
Activity (A-375 [18]): 7.14%
Activity (A-375 [19]): 28.94%
Activity (A-375 [20]): 43.2%
Activity (A-375 [21]): Dde
inhibition (MCF7 [22]): Active
IC50 at 72 h [23]: 630 nM
Activity [24]: Non-Toxic
Activity (A-375 [25]): 29.19%
Cmax [26]: 27000 ng/mL
